Reference: PMC10420655, “Evaluation of α-Glucosidase Inhibition and Antihyperglycemic Activity of Extracts Obtained from Leaves and Flowers of Rumex crispus L” (Molecules, 2023)
≈ marks a conversion by molar mass, not a printed value.

Target: T1, α-glucosidase type I from S. cerevisiae
T1 construct: gene MAL12
Test: chromogenic pNPG hydrolysis, absorbance at […] nm, 96-well plate
Assay type: biochemical, Saccharomyces cerevisiae
Conditions: substrate p-nitrophenyl-α-D-glucopyranoside (20 µL of 5 mM stock), 0.1 M phosphate buffer pH 6.9, 37 °C, 15 min preincubation

`C[C@H]1O[C@H](O[C@H]2[C@H](O)[C@@H](O)[C@@H](O[C@H]3[C@H](O)[C@@H](O)C(O)O[C@@H]3CO)O[C@@H]2CO)[C@H](O)[C@@H](O)[C@@H]1N[C@H]1C=C(CO)[C@@H](O)[C@H](O)[C@H]1O` (stereo partly shown) [Acarbose] was tested, and the “IC50” value was 3698.0 ± 76.5 µg/mL (≈ 5.73 mM).
